Here are results for 6 molecules from US10149835B2, “Isoxazole derivatives as FXR agonists and methods of use thereof” (Enanta Pharmaceuticals, Inc., priority 2016, dated 2018).

SMILES strings stand for the structures.

This assay has as its target human FXR (NR1H4) (Homo sapiens (Human), UniProt Q96RI1). The assay is described as follows: Human FXR (NR1H4) Assay (Gal4 promoter driven luciferase reporter, Indigo Bioscience kit). In kind it is cell-based. To be noted: CHO reporter cells expressing human NR1H4; for EC50: 22 hours incubation, potency ranges; for Efficacy (%): normalized to CDCA set as 100%. As for the experimental part:
To a solution of compound (1) (211 mg, 0.37 mmol) in toluene (3 ml) was added dropwise triethylamine (0.10 ml, 0.74 mmol) and diphenyl phosphorazidate (0.087 ml, 0.40 mmol). The mixture was stirred at 23° C. for 1 h, at 85° C. for 3.5 h, and cooled to 23° C. A solution of N,N-dimethylsulfamide (68 mg, 0.55 mmol) in THF (0.5 mL) and DBU (83 μl, 0.55 mmol) was added. The mixture was stirred at 23° C. for 16 h, quenched with 1 M HCl, and extracted with EtOAc (2×). The combined organic layers were washed with brine and concentrated in vacuo. The residue was purified by chromatography on silica gel column eluting with hexane/acetone (100/0 to 70/30, 10 min) to provide Example 7. Assays Human FXR (NR1H4) Assay
Determination of a ligand mediated Gal4 promoter driven transactivation to quantify ligand binding mediated activation of FXR. FXR Reporter Assay kit purchased from Indigo Bioscience (Catalogue number: IB00601) to determine the potency and efficacy of compound developed by Enanta that can induce FXR activation. The principle application of this reporter assay system is to quantify functional activity of human FXR. The assay utilizes non-human mammalian cells, CHO (Chinese hamster ovary) cells engineered to express human NR1H4 protein (referred to as FXR). Reporter cells also incorporate the cDNA encoding beetle luciferase which catalyzes the substrates and yields photon emission. Luminescence intensity of the reaction is quantified using a plate-reading luminometer, Envision. Reporter Cells include the luciferase reporter gene functionally linked to an FXR responsive promoter. Thus, quantifying changes in luciferase expression in the treated reporter cells provides a sensitive surrogate measure of the changes in FXR activity. […] The assay is according to the manufacturer's instructions. In brief, the assay was performed in white, 96 well plates using final volume of 100 μl containing cells with different doses of compounds. Retrieve Reporter Cells from −80° C. storage. Perform a rapid thaw of the frozen cells by transferring a 10 ml volume of 37° C. cell recovery medium into the tube of frozen cells. Recap the tube of Reporter Cells and immediately place it in a 37° C. water bath for 5-10 minutes. Retrieve the tube of Reporter Cell Suspension from the water bath. Sanitize the outside surface of the tube with a 70% alcohol swab, and then transfer it into the cell culture hood. Dispense 90 μl of cell suspension into each well of the 96-well Assay Plate. Transfer the plate into 37° C. incubator, allowing the cells adherent to the bottom of the well. Dilute compounds in Dilution Plate (DP), and administrate to cells at Assay Plate (AP). DMSO content of the samples was kept at 0.2%. Cells were incubated for additional 22 hours before luciferase activities were measured. Thirty minutes before intending to quantify FXR activity, remove Detection Substrate and Detection Buffer from the refrigerator and place them in a low-light area so that they may equilibrate to room temperature. Remove the plate's lid and discard all media contents by ejecting it into an appropriate waste container. Gently tap the inverted plate onto a clean absorbent paper towel to remove residual droplets. Cells will remain tightly adhered to well bottoms. Add 100 μl of luciferase detection reagent to each well of the assay plate. Allow the assay plate to rest at room temperature for at least 5 minutes following the addition of LDR. Set the instrument (Envision) to perform a single 5 second “plate shake” prior to reading the first assay well. Read time may be 0.5 second (500 mSec) per well.

Sequence of human FXR (NR1H4) (Q96RI1 whole entry, the tested form may be a part): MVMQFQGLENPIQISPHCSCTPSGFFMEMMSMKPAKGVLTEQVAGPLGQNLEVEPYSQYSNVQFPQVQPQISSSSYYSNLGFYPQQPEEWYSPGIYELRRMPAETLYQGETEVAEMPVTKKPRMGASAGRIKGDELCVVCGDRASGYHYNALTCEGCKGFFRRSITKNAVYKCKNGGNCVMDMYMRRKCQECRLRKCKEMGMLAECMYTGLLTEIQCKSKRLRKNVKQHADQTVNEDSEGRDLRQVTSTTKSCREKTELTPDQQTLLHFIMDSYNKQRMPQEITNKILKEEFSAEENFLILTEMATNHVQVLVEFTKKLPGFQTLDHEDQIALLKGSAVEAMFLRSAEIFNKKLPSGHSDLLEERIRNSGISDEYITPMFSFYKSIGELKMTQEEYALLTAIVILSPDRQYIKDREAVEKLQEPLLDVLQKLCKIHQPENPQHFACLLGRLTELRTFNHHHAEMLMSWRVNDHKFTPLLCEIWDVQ

One may read the EC50 as the concentration needed to bring the measured effect to its halfway point. Higher therefore signals lower potency in that assay. As to `O=C(NS(=O)(=O)C1CC1)c1ccc(N2C3CC[C@H]2CC(OCc2c(-c4c(Cl)cccc4Cl)noc2C2CC2)C3)c(F)c1` (some centres unmarked) [Example 6], the half-maximal effective concentration (EC50) was below 100 nM and the “Efficacy (%)” value is 170%. `O=C(NS(=O)(=O)C1CC1)c1ccc2nc(N3C4CC[C@H]3CC(OCc3c(-c5c(Cl)cccc5Cl)noc3C3CC3)C4)sc2c1` (some centres unmarked) [Example 2]: the EC50 was below 100 nM and the “Efficacy (%)” value turned out to be 204%. Turning to `CN(C)S(=O)(=O)NC(=O)c1ccc(N2C3CC[C@H]2CC(OCc2c(-c4c(Cl)cccc4Cl)noc2C2CC2)C3)c(F)c1` (some centres unmarked) [Example 4], the EC50 was below 100 nM and the “Efficacy (%)” value is listed as 174%. The matching figures for `CC(C)(C)c1ccc(S(=O)(=O)NC(=O)c2ccc(N3C4CC[C@H]3CC(OCc3c(-c5c(Cl)cccc5Cl)noc3C3CC3)C4)c(F)c2)cc1` (some centres unmarked) [Example 5]: below 100 nM and 168%. As to `CN(C)S(=O)(=O)NC(=O)c1ccc2nc(N3C4CC[C@H]3C[C@H](OCc3c(-c5c(Cl)cccc5Cl)noc3C3CC3)C4)sc2c1` [Example 1], the “Efficacy (%)” value is 204%. As to `CC(C)(C)c1ccc(S(=O)(=O)NC(=O)c2ccc3nc(N4C5CC[C@H]4CC(OCc4c(-c6c(Cl)cccc6Cl)noc4C4CC4)C5)sc3c2)cc1` (some centres unmarked) [Example 3], the 50% effective concentration (EC50) is below 100 nM and the “Efficacy (%)” value is 226%.
